Source: the supplement of paper PMC10307832

Key:
Experiment in all cases: relative viability (nuclei count vs DMSO), 5 days (fraction); higher = more cells survive
ALW-II-49-7 + Foretinib = compound: Cc1ccc(C(=O)Nc2cccc(C(F)(F)F)c2)cc1Nc1cncc(C(N)=O)c1 [ALW-II-49-7] + COc1cc2c(Oc3ccc(NC(=O)C4(C(=O)Nc5ccc(F)cc5)CC4)cc3F)ccnc2cc1OCCCN1CCOCC1 [Foretinib] (partner 0.25 µM)
In short: (§1)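 Five library-drug doses in √10 steps were combined with a fixed anchor-drug dose, or a single drug was given alone, by pin tool to lung cancer cell lines in 1536-well plates the day after seeding. Nuclei were stained and counted after 5 days. Relative viability is the nuclei count in treated wells over that in vehicle wells, taken as the median of duplicate plates.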

XMD13-2 + Alpelisib = compound: C1CC1C(=O)NC2=NNC3=C2C=CC(=C3)C4=CC(=CC=C4)C(=O)NC5CC5 [XMD13-2] + Cc1nc(NC(=O)N2CCC[C@H]2C(N)=O)sc1-c1ccnc(C(C)(C)C(F)(F)F)c1 [Alpelisib] (partner 2 µM)
In short: as §1

Dasatinib + Decitabine = compound: Cc1nc(Nc2ncc(C(=O)Nc3c(C)cccc3Cl)s2)cc(N2CCN(CCO)CC2)n1 [Dasatinib] + Nc1ncn([C@H]2C[C@H](O)[C@@H](CO)O2)c(=O)n1 [Decitabine] (partner 2 µM)
In short: as §1

ALW-II-49-7 + Alpelisib = compound: Cc1ccc(C(=O)Nc2cccc(C(F)(F)F)c2)cc1Nc1cncc(C(N)=O)c1 [ALW-II-49-7] + Cc1nc(NC(=O)N2CCC[C@H]2C(N)=O)sc1-c1ccnc(C(C)(C)C(F)(F)F)c1 [Alpelisib] (partner 2 µM)
In short: as §1

| Cell Line | relative viability (ALW-II-49-7 + Foretinib; first compound 0.08 µM) | relative viability (ALW-II-49-7 + Foretinib; first compound 0.253 µM) | relative viability (ALW-II-49-7 + Foretinib; first compound 0.8 µM) | relative viability (ALW-II-49-7 + Foretinib; first compound 2.53 µM) | relative viability (ALW-II-49-7 + Foretinib; first compound 8 µM) | relative viability (XMD13-2 + Alpelisib; first compound 0.05 µM) | relative viability (XMD13-2 + Alpelisib; first compound 0.1581 µM) | relative viability (XMD13-2 + Alpelisib; first compound 0.5 µM) | relative viability (XMD13-2 + Alpelisib; first compound 1.581 µM) | relative viability (XMD13-2 + Alpelisib; first compound 5 µM) | relative viability (Dasatinib + Decitabine; first compound 0.005 µM) | relative viability (Dasatinib + Decitabine; first compound 0.01581 µM) | relative viability (Dasatinib + Decitabine; first compound 0.05 µM) | relative viability (Dasatinib + Decitabine; first compound 0.1581 µM) | relative viability (Dasatinib + Decitabine; first compound 0.5 µM) | relative viability (ALW-II-49-7 + Alpelisib; first compound 0.08 µM) | relative viability (ALW-II-49-7 + Alpelisib; first compound 0.253 µM) | relative viability (ALW-II-49-7 + Alpelisib; first compound 0.8 µM) | relative viability (ALW-II-49-7 + Alpelisib; first compound 2.53 µM) | relative viability (ALW-II-49-7 + Alpelisib; first compound 8 µM) |
| --- | --- | --- | --- | --- | --- | --- | --- | --- | --- | --- | --- | --- | --- | --- | --- | --- | --- | --- | --- | --- |
| H3255 | 1.01 | 0.827 | 0.939 | 1.02 | 0.703 | 0.858 | 0.597 | 0.658 | 0.729 | 0.624 | 0.66 | 0.573 | 0.568 | 0.493 | 0.311 | 0.828 | 0.743 | 0.73 | 0.403 | 0.511 |
| HARA | 0.646 | 0.836 | 1.03 | 0.887 | 1.04 | 0.923 | 0.795 | 0.943 | 0.808 | 0.988 | 0.578 | 0.47 | 0.549 | 0.305 | 0.221 | 0.904 | 0.883 | 0.844 | 0.834 | 0.987 |
| HCC-15 | 1.08 | 1.1 | 1.03 | 0.96 | 1 | 0.91 | 0.811 | 0.911 | 0.878 | 0.619 | 0.609 | 0.606 | 0.496 | 0.428 | 0.466 | 0.901 | 0.931 | 0.949 | 0.907 | 0.845 |
| HCC-44 | – | – | – | – | – | 0.995 | 0.843 | 0.934 | 0.82 | 0.745 | 1.04 | 0.915 | 1.04 | 0.886 | 0.624 | 0.796 | 0.854 | 0.887 | 0.752 | 0.592 |
| HCC-78 | 0.524 | 0.487 | – | 0.528 | 0.586 | 0.392 | 0.338 | 0.327 | 0.304 | 0.352 | 0.615 | 0.608 | 0.599 | 0.429 | 0.326 | 0.275 | 0.309 | 0.351 | 0.325 | 0.337 |
| HCC-366 | 1 | 1.02 | 0.941 | 1 | 1.08 | 0.61 | 0.31 | 0.334 | 0.446 | 0.443 | 0.354 | 0.262 | 0.247 | 0.188 | 0.215 | 0.392 | 0.605 | 0.417 | 0.356 | 0.579 |
| HCC-827 | 1.02 | 1.13 | 1.07 | 0.954 | 1.02 | 1.01 | 0.917 | 1.01 | 0.947 | 0.528 | 0.35 | 0.271 | 0.309 | 0.224 | 0.159 | 0.949 | 1.08 | 0.945 | 0.94 | 0.897 |
| IA-LM | 1.06 | 0.999 | 1.28 | 1.02 | 0.416 | 0.86 | 0.962 | 0.766 | 0.767 | 0.901 | – | – | – | – | – | 0.768 | 0.523 | 0.653 | 0.321 | 0.112 |
| NCI-H522 | – | – | – | – | – | – | – | – | – | – | 0.745 | 0.767 | 0.671 | 0.655 | 0.61 | – | – | – | – | – |
| NCI-H1299 | 1.09 | 1.16 | 1.09 | 0.996 | 0.965 | 1.08 | 1.08 | 1.09 | 1.08 | 1.09 | – | – | – | – | – | 1.08 | 0.974 | 1.11 | 1.17 | 0.968 |
| NCI-H1563 | 0.942 | 0.97 | 0.948 | 0.95 | 0.899 | 1.02 | 1 | 0.941 | 0.894 | 0.985 | – | – | – | – | – | 0.946 | 0.941 | 1.01 | 0.977 | 0.976 |
| NCI-H1623 | 0.889 | 0.809 | 0.87 | 0.649 | 0.859 | – | – | – | – | – | – | – | – | – | – | – | – | – | – | – |
| NCI-H1648 | – | – | – | – | – | – | – | – | – | – | 0.494 | 0.477 | 0.506 | 0.457 | 0.241 | – | – | – | – | – |
| NCI-H1650 | 1.04 | 1.18 | 1.08 | 1.05 | 1.13 | – | – | – | – | – | 0.462 | 0.255 | 0.475 | 0.318 | 0.314 | – | – | – | – | – |
| NCI-H1703 | 0.271 | 0.407 | 0.306 | 0.308 | 0.352 | 0.356 | 0.405 | 0.292 | 0.279 | 0.406 | – | – | – | – | – | 0.331 | 0.322 | 0.258 | 0.297 | 0.182 |
| NCI-H1792 | – | – | – | – | – | 0.845 | 0.691 | 0.745 | 0.845 | 0.821 | 0.544 | 0.51 | 0.469 | 0.342 | 0.178 | 0.512 | 0.459 | 0.586 | 0.504 | 0.473 |
| NCI-H2228 | 1.07 | 0.651 | 0.736 | 0.848 | 0.795 | 0.768 | 0.716 | 0.771 | 0.772 | 0.655 | – | – | – | – | – | 0.647 | 0.649 | 0.866 | 0.75 | 0.769 |
| NCI-H2342 | 1.19 | 0.986 | 1.07 | 1.03 | 0.981 | – | – | – | – | – | 0.685 | 0.598 | 0.632 | 0.51 | 0.321 | – | – | – | – | – |
| SW 900 | 0.943 | 0.866 | 0.96 | 0.913 | 0.831 | – | – | – | – | – | 0.46 | 0.39 | 0.398 | 0.413 | 0.23 | – | – | – | – | – |
